From PMC8041284, “Tunable Methacrylamides for Covalent Ligand Directed Release Chemistry” (Journal of the American Chemical Society, 2021)

Each compound was assayed against BTK (Homo sapiens, UniProt Q06187) (assay: biochemical). Settings: read-out: BTK inhibition (%).
Sequence of BTK (Q06187 402-655 limits assumed): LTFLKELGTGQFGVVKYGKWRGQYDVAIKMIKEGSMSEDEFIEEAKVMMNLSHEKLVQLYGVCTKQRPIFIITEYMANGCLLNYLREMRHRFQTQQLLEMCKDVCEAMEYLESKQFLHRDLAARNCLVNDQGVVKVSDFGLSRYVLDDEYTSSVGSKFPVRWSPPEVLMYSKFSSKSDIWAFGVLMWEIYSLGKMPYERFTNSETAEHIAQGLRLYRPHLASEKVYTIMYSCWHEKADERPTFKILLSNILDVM

Row | SMILES | inhibition at 10 µM
1 | O=C(O)[C@H]1O[C@@H](Oc2cc3oc(-c4ccc(O)cc4)cc(=O)c3c(O)c2O)[C@H](O)[C@@H](O)[C@@H]1O [PCM-0215170] | 0%

Same assay, conditions: read-out: BTK inhibition (%), 0.75 uM BTK, […] probe 3l, 15 min preincubation

Row | inhibition at 10 µM | SMILES
2 | 73.2% | CCCCCCCCCCCCCCCC(=O)O[C@@H]1[C@@H](O)[C@@H](O)[C@@H]([C@H](NC(=O)[C@@H]2C[C@@H](CCC)CN2C)[C@H](C)Cl)O[C@@H]1SC [PCM-0215167]
3 | 19.6% | COC(=O)[C@@H](N)CCCN=C(N)N[N+](=O)[O-] [PCM-0215172]
4 | 9.4% | NCC[C@H](O)C(=O)N[C@@H]1C[C@H](N)[C@@H](O[C@H]2O[C@H](CN)[C@@H](O)[C@H](O)[C@H]2O)[C@H](O)[C@H]1O[C@H]1O[C@H](CO)[C@@H](O)[C@H](N)[C@H]1O [PCM-0215174]
5 | 9.4% | NC(N)=NCCC[C@H](N)C(=O)NCC(=O)N[C@@H](CC(=O)O)C(=O)O [PCM-0215176]
6 | -8.5% | C[N+](C)(C)NCCC(=O)[O-] [PCM-0215179]
7 | 9.4% | CO/N=C(\C(=O)N[C@@H]1C(=O)N2C(C(=O)O)=C(Cn3ccc(=N)n3CCO)CS[C@H]12)c1csc(N)n1 [PCM-0215184]
8 | -11.7% | CCCCC[C@H](O)/C=C/[C@H]1[C@H](O)CC(=O)[C@@H]1C/C=C\CCCC(=O)O [PCM-0215185]
9 | 0.9% | NCCCC(O)(P(=O)(O)O)P(=O)(O)O [PCM-0215186]
10 | 17% | C=C1c2cccc(O)c2C(O)=C2C(=O)[C@]3(O)C(O)=C(C(N)=O)C(=O)[C@@H](N(C)C)[C@@H]3[C@@H](O)[C@H]12 [PCM-0215189]
11 | 9.4% | N[C@@]1(C(=O)O)CS(=O)(=O)[C@H]2[C@H](C(=O)O)[C@H]21 [PCM-0215191]
12 | 2.6% | NC(N)=NCCC[C@H](N)C(=O)O [PCM-0215193]
13 | 11.6% | CNC(=O)[C@H](Cc1ccccc1)NC(=O)[C@H](CC(C)C)[C@H](CSc1cccs1)C(=O)NO [PCM-0215194]

The remaining lines, values behind:

Row | SMILES | inhibition at 10 µM
14 | CC[C@]12C=CCN3CC[C@@]4(c5ccc(OC)cc5N(C)[C@H]4[C@@](O)(C(=O)OC)[C@@H]1OC(C)=O)[C@@H]32 [PCM-0215165] | 6.2%
15 | COc1ccc([C@@H]2CC(=O)c3c(O)cc(O[C@@H]4O[C@H](CO[C@@H]5O[C@@H](C)[C@H](O)[C@@H](O)[C@H]5O)[C@@H](O)[C@H](O)[C@H]4O)cc3O2)cc1OC [PCM-0215169] | 5.4%
16 | O=c1cc(N2CCOCC2)oc2c1ccc1ccccc12 [PCM-0215173] | -17.9%
17 | COc1cc(N2CCC(N(C)C)CC2)ccc1Nc1ncc(Cl)c(Nc2ccccc2P(C)(C)=O)n1 [PCM-0215177] | 64.8%
18 | Cc1cc(/C(O)=C2\C(=O)C(=O)N(CCCN3CCOCC3)C2c2ccncc2)ccc1OCc1ccccc1 (stereo not drawn) [PCM-0215180] | 0%
19 | Cc1c(N)nc([C@H](CC(N)=O)NC[C@H](N)C(N)=O)nc1C(=O)N[C@H](C(=O)N[C@H](C)[C@@H](O)[C@H](C)C(=O)N[C@H](C(=O)NCCc1nc(-c2nc(C(=O)NCCC[S+](C)C)cs2)cs1)[C@@H](C)O)[C@@H](O[C@@H]1O[C@@H](CO)[C@@H](O)[C@H](O)[C@@H]1O[C@H]1O[C@H](CO)[C@@H](O)[C@H](OC(N)=O)[C@@H]1O)c1cnc[nH]1 [PCM-0215181] | 7.7%
20 | CCCCCCCCCCCCCCCCCCOP(=O)([O-])OC1CC[N+](C)(C)CC1 [PCM-0215183] | -46.8%
21 | Cc1onc(-c2ccccc2)c1C(=O)N[C@@H]1C(=O)N2[C@@H]1SC(C)(C)[C@@H]2C(=O)O [PCM-0215187] | 21.3%
22 | COC(=O)[C@@H]1CC2=CC(=O)CC[C@]2(C)[C@@]23O[C@@H]2C[C@@]2(C)[C@@H](CC[C@@]24CCC(=O)O4)[C@H]13 [PCM-0215188] | -18.7%
23 | CC(=O)OCC1=C(C(=O)O)N2C(=O)[C@@H](N)[C@H]2SC1 [PCM-0215190] | -8.5%
24 | CN[C@@H]1[C@H](O[C@H]2[C@H](O[C@H]3[C@H](O)[C@@H](O)[C@H](N=C(N)N)[C@@H](O)[C@@H]3N=C(N)N)O[C@@H](C)[C@]2(O)C=O)O[C@@H](CO)[C@H](O)[C@H]1O [PCM-0215192] | -10.2%
